Assays:
[1] = system: Helicobacter pylori; experiment: Activity against Helicobacter pylori, agar method of Iwahi et al. (MIC 50); type: cell-based; conditions: Helicobacter pylori, 96 h; Columbia agar (Oxoid), growth period of 4 days; approximate values; read-out: Appr. MIC 50
Excerpt: The compounds of the formula I were investigated with respect to their activity against Helicobacter pylori following the method described by Tomoyuki Iwahi et al. (Antimicrobial Agents and Chemotherapy, 1991, 490-496) using Columbia agar (Oxoid) and a growth period of 4 days.

SMILES	melting point	MIC50 [1] [µg/mL]
Cc1nc(C)c(Cl)c(NCc2nccc(OCCOCCSCCn3c([N+](=O)[O-])cnc3C)c2C)n1 [Compound 28, (5-Chloro-2,6-dimethyl-pyrimidin-4-yl)-[3-methyl-4-(2-{2-[2-(2-methyl-5nitro-imidazol-1-yl)ethylsulfanyl]-ethoxy}-ethoxy)-pyridin-2-ylmethyl]-amine]	102 to 105 °C	≤ 0.1
Cc1nc(C)c(Cl)c(NCc2nccc(SCCCN3CCN(Cc4ccncc4)CC3)c2C)n1.Cl [Compound 23, (5-Chloro-2,6-dimethylpyrimidin-4-yl)-{3-methyl-4-[3-(4-pyridin-4-ylmethylpiperazin-1-yl)propylsulfanyl]pyridin-2-ylmethyl}amine hydrochloride]	166 to 168 °C	≤ 0.1
Cc1nc(C)c(Cl)c(NCc2nccc(OCCSCCn3c([N+](=O)[O-])cnc3C)c2C)n1 [Compound 32, (5-Chloro-2,6-dimethyl-pyrimidin-4-yl)-(3-methyl-4-{2-[2-(2-methyl-5-nitro-imidazol-1-yl)-ethylsulfanyl]-ethoxy}-pyridin-2-ylmethyl)-amine]	139 to 144 °C	≤ 0.1
Cc1nc(C)c(Cl)c(NCc2nccc(SCCCCN3CCNCC3)c2C)n1 [Compound 17, (5-Chloro-2,6-dimethylpyrimidin-4-yl)-[3-methyl-4-(4-piperazin-1-ylbutylsulfanyl)pyridin-2-ylmethyl]amine]	143 to 145 °C	≤ 0.1
Cc1nc(C)c(Cl)c(NCc2nccc(N(C)CCCSCCn3c([N+](=O)[O-])cnc3C)c2Cl)n1 [Compound 18, (5-Chloro-2,6-dimethylpyrimidin-4-yl)-[3-chloro-4-(methyl-{3-[2-(2-methyl-5nitroimidazol-1-yl)ethylsulfanyl]propyl}amino)pyridin-2-ylmethyl]amine]	123 to 126 °C	≤ 0.1
Cc1nc(C)c(Cl)c(NCc2nccc(OCCCCSCc3ccccn3)c2C)n1 [Compound 51, (5-Chloro-2,6-dimethyl-pyrimidin-4-yl)-{3-methyl-4-[4-(pyridin-2-ylmethylsulfanyl)-butoxy]-pyridin-2-ylmethyl}-amine]	113 to 114 °C	≤ 0.1
Cc1nc(C)c(Cl)c(NCc2nccc(SCCOCCSCc3cccnc3)c2C)n1 [Compound 52, (5-Chloro-2,6-dimethyl-pyrimidin-4-yl)-(3-methyl-4-{2-[2-(pyridin-3-ylmethylsulfanyl)-ethoxy]-ethylsulfanyl}-pyridin-2-ylmethyl)-amine]	90 to 92 °C	≤ 0.1
Cc1nc(C)c(Cl)c(NCc2nccc(OCCSCc3ccncc3)c2C)n1 [Compound 30, (5-Chloro-2,6-dimethyl-pyrimidin-4-yl)-{3-methyl-4-[2-(pyridin-4-ylmethylsulfanyl)-ethoxy]-pyridin-2-ylmethyl}-amine]	140 to 142 °C	≤ 0.1
Cc1nc(C)c(Cl)c(NCc2nccc(OCCCCSCCn3c([N+](=O)[O-])cnc3C)c2C)n1 [Compound 16, (5-Chloro-2,6-dimethylpyrimidin-4-yl)-(3-methyl-4-{4-[2-(2-methyl-5-nitroimidazol-1-yl)-ethylsulfanyl]butoxy}pyridin-2-ylmethyl]amine]	114 to 117 °C	≤ 0.1
Cc1nc(C)c(Cl)c(NCc2nccc(SCCOCCSCc3ccccn3)c2C)n1 [Compound 53, (5-Chloro-2,6-dimethyl-pyrimidin-4-yl)-(3-methyl-4-{2-[2-(pyridin-2-ylmethylsulfanyl)-ethoxy]ethylsulfanyl}-pyridin-2-ylmethyl)-amine]	70 to 72 °C	≤ 0.1
Cc1nc(C)c(Cl)c(NCc2nccc(SCc3ccncc3)c2C)n1 [Compound 46, (5-Chloro-2,6-dimethyl-pyrimidin-4-yl)-[3-methyl-4-(pyridin-4-ylmethylsulfanyl)-pyridin-2-ylmethyl]-amine]	188 to 191.9 °C	≤ 0.1

More lines, now with the values ahead:

melting point	MIC50 [1] [µg/mL]	SMILES
160 to 163 °C	≤ 0.1	Cc1nc(C)c(Cl)c(NCc2nccc(SCCOCCn3c([N+](=O)[O-])cnc3C)c2C)n1 [Compound 57, (5-Chloro-2,6-dimethyl-pyrimidin-4-yl)-(3-methyl-4-{2-[2-(2-methyl-5-nitro-imidazol-1-yl)-ethoxy]-ethylsulfanyl}-pyridin-2-ylmethyl)-amine]
235 to 241 °C (dec.)	≤ 0.1	Cc1nc(C)c(Cl)c(NCc2nccc(SCCOCCOCC(F)(F)F)c2C)n1.Cl [Compound 4, (5-Chloro-2,6-dimethylpyrimidin-4-yl)-(3-methyl-4-{2-[2-(2,2,2-trifluoroethoxy)ethoxy]ethylsulfanyl}pyridin-2-ylmethyl)amine hydrochloride]
112 to 115 °C	≤ 0.1	Cc1nc(C)c(Cl)c(NCc2nccc(SCCCSCCSc3ncccn3)c2C)n1 [Compound 41, (5-Chloro-2,6-dimethyl-pyrimidin-4-yl)-(3-methyl-4-{3-[2-(pyrimidin-2-ylsulfanyl)-ethylsulfanyl]-propylsulfanyl}-pyridin-2-ylmethyl)-amine]
121 °C	≤ 0.1	Cc1nc(C)c(Cl)c(NCc2nccc(SCCCSCC3CN(C)C(=O)O3)c2C)n1 (stereo not drawn) [Compound 5, 5-(3-{2-[(5-Chloro-2,6-dimethylpyrimidin-4-ylamino)methyl]-3-methylpyridin-4-yl-sulfanyl}propylsulfanylmethyl)-3-methyloxazolidin-2-one]
148 to 149 °C	≤ 0.1	Cc1c(SCCCSCc2ccncc2)ccnc1CNc1ncncc1Cl [Compound 8, (5-Chloropyrimidin-4-yl)-{3-methyl-4-[3-(pyridin-4-ylmethylsulfanyl)propylsulfanyl]-pyridin-2-ylmethyl}amine]
142 to 144 °C	≤ 0.1	Cc1nc(C)c(Cl)c(NCc2nccc(SCCCCSCCn3c([N+](=O)[O-])cnc3C)c2C)n1 [Compound 19, (5-Chloro-2,6-dimethylpyrimidin-4-yl)-(3-methyl-4-{4-[2-(2-methyl-5-nitroimidazol-1-yl)-ethylsulfanyl]butylsulfanyl}pyridin-2-ylmethyl)amine]
169 to 170 °C	≤ 0.1	Cc1c(SCc2ccco2)ccnc1CNc1ncncc1Cl [Compound 59, (5-Chloro-pyrimidin-4-yl)-[4-(furan-2-ylmethylsulfanyl)-3-methyl-pyridin-2-ylmethyl]-amine]
124 to 125 °C	≤ 0.1	Cc1nc(C)c(Cl)c(NCc2nccc(SCCCSCc3ccncc3)c2C)n1 [Compound 24, (5-Chloro-2,6-dimethylpyrimidin-4-yl)-{3-methyl-4-[3-(pyridin-4-ylmethylsulfanyl)propylsulfanyl]pyridin-2-ylmethyl}amine]
104 to 105 °C	≤ 0.1	Cc1nc(C)c(Cl)c(NCc2nccc(SCCCSCc3cccnc3)c2C)n1 [Compound 47, (5-Chloro-2,6-dimethyl-pyrimidin-4-yl)-{3-methyl-4-[3-(pyridin-3-ylmethylsulfanyl)-propylsulfanyl]-pyridin-2-ylmethyl}-amine]
134 to 137 °C	≤ 0.1	Cc1nc(C)c(Cl)c(NCc2nccc(SCCCSCCO)c2C)n1 [Compound 31, 2-(3-{2-[(5-Chloro-2,6-dimethyl-pyrimidin-4-ylamino)-methyl]-3-methyl-pyridin-4-ylsulfanyl}-propylsulfanyl)-ethanol]
